Read-outs that look alike come from different tables or passages of the source.

For series [1], the target named is dopamine transporter (DAT) (Rattus norvegicus, UniProt P23977). Put plainly: Radioligand binding to dopamine transporter, [3H]GBR-12935, rat corpus striatum homogenate.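 Further: displacement read as filter-bound tritium by liquid scintillation counting, roughly 1 mg wet tissue per tube, IC50 from fitted concentration-inhibition curves.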
Procedure: For DAT assays, corpus striatum tissue from rat forebrain was rapidly dissected on ice, pooled, weighed, and homogenized at 30 mg/mL in cold DAT buffer (50 mM Tris citrate, pH 7.4, 120 mM NaCl, 4 mM MgCl2) and stored at −70° C. The pellet was suspended in the assay buffer to provide the equivalent of about 1 mg of wet weight per assay tube.
L=400 pM) and 1.0 μM GBR-12909 (Research Biochemicals International, Natick, Mass.) as blank (Kula, N. S. et al., Neuropharmacology.
Assay tubes were incubated at room temperature for 120 min (SERT) or on ice for 180 min (NET) or 45 min (DAT). Labeled tissue samples were recovered in a Brandel Cell Harvester on glass fiber filter sheets saturated with 0.3% (v/v) aqueous polyethyleneimine, washed with ice-cold 0.9% NaCl, and counted for tritium in a liquid scintillation counter. Concentration-inhibition curves were computer-fit to determine IC50±SEM and converted to Ki values in nM from the Cheng -Prusoff relationship Ki=IC50/(1+[L]/Kd).
The target of series [2] is T1, norepinephrine transporter (NET) (Rattus norvegicus, UniProt Q63380).
T1 construct: from tissue; host or cells: rat cerebral cortex
Put plainly: Radioligand binding to norepinephrine transporter, [3H]nisoxetine, rat cerebral cortex homogenate. The text has this:
(§1) 30: 89-92, 1990; Andersen, P. H., J. Neurochem. 48:1887-1896, 1987).

In series [3] the target is T2, serotonin transporter (SERT) (Rattus norvegicus, UniProt P31652).
T2 construct: For SERT and NET assays, rat cerebral cortex was homogenized in cold SERT assay buffer; from tissue; host or cells: rat cerebral cortex
The experiment in a line: Radioligand binding to serotonin transporter, [3H]paroxetine, rat cerebral cortex homogenate. Conditions: for Selectivity for SERT: ratio of Ki for NET or DAT to that for SERT (values match DAT/SERT), larger number is more selective for SERT.
Source text: as §1

[4] abbreviates: read-out: DAT (Ki), rat corpus striatum membranes, [3H]GBR-12935 400 pM, on ice 45 min, Ki from IC50 by Cheng-Prusoff.
Where [5] appears, read: rat cerebral cortex membranes, [3H]nisoxetine 600 pM, on ice 180 min, Ki from IC50 by Cheng-Prusoff, read-out: NET (Ki).
Setting [6] is: rat cerebral cortex membranes, [3H]paroxetine 200 pM, room temperature 120 min, Ki from IC50 by Cheng-Prusoff, read-out: SERT (Ki).

Chain of dopamine transporter (DAT) (P23977 whole entry): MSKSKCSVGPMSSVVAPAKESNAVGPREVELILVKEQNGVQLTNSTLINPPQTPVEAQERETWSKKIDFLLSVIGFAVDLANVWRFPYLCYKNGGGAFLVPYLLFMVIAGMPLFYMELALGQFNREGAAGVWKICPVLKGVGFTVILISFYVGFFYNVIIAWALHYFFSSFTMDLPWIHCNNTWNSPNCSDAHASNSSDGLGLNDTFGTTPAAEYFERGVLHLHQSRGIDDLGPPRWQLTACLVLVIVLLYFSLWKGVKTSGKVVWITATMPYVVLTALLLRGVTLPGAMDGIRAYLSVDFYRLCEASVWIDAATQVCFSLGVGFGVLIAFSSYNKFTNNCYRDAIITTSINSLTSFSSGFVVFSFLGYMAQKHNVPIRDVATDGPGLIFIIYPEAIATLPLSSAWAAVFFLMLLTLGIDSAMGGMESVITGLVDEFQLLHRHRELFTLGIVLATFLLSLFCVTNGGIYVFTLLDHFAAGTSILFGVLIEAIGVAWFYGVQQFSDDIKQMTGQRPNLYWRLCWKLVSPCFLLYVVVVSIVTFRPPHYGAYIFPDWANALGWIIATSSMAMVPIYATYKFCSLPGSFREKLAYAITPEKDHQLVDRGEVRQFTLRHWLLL
T2 sequence (P31652 whole entry): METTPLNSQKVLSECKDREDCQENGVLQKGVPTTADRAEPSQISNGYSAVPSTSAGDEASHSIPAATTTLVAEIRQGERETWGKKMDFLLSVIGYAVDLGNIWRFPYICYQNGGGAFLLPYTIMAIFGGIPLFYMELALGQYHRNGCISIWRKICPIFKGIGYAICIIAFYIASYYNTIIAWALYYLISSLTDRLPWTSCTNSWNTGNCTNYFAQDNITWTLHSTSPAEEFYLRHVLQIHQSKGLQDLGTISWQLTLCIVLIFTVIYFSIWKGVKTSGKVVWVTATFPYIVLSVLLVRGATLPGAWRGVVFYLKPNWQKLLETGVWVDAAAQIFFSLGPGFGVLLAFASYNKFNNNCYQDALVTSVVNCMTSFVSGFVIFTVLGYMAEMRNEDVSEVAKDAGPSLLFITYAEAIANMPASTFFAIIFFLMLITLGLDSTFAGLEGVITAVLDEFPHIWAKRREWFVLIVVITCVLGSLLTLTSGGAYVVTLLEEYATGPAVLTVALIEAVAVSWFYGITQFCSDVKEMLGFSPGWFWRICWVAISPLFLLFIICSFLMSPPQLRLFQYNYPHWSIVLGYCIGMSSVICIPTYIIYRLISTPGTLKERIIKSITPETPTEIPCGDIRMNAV
T1 sequence (Q63380 1-617): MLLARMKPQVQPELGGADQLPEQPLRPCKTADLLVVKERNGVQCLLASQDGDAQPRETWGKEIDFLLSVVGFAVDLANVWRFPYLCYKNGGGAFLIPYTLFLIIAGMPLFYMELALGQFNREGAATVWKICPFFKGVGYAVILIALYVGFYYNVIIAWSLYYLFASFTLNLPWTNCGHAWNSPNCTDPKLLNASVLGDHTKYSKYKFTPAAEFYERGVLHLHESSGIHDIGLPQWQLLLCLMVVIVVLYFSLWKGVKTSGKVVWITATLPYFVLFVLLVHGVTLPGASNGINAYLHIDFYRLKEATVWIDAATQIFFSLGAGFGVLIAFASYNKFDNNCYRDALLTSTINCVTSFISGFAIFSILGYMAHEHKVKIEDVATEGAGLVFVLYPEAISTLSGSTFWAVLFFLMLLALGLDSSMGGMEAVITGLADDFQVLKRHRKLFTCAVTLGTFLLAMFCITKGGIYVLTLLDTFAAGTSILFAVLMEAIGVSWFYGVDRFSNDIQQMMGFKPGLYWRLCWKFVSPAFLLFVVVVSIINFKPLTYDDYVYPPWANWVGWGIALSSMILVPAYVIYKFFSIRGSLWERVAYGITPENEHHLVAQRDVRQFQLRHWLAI

Consider `COC(=O)C1C(c2ccc(-c3cccc(O)c3)cc2)CC2CCC1N2C` (centres unmarked) [Compound 2], for which the figures for the Ki in series [1] (setting [4]) and in series [2] (setting [5]) were 15.2 nM and 155 nM, respectively.

Take `COC(=O)C1C(c2ccc(-c3ccccc3OC)cc2)CC2CCC1N2C` (centres unmarked) [Compound 3a]: the inhibitory constant (Ki) in series [1] (setting [4]) was 357 nM; in series [2] (setting [5]), more than 10000 nM.

As to `COC(=O)C1C(c2ccc(-c3cccc(OC)c3)cc2)CC2CCC1N2C` (centres unmarked) [Compound 3b], the Ki was 58.7 nM in series [1] (setting [4]), 1.89 nM in series [3] (setting [6]) and more than 3000 nM in series [2] (setting [5]). The “Selectivity for SERT” value in series [3] is given as 31.1.

`COC(=O)C1C(c2ccc(-c3ccc(OC)cc3)cc2)CC2CCC1N2C` (centres unmarked) [Compound 3c]: the Ki in series [1] (setting [4]) turned out to be 13.2 nM; in series [3] (setting [6]), 32 nM; in series [2] (setting [5]), 352 nM. Besides, in series [3], the “Selectivity for SERT” value came to 0.41.

On to `COC(=O)C1C(c2ccc(-c3ccccc3[N+](=O)[O-])cc2)CC2CCC1N2C` (centres unmarked) [Compound 4a], for which, in series [3], the “Selectivity for SERT” value was found to be 1. For the same molecule, the Ki in series [2] (setting [5]) was more than 3000 nM.

In the case of `COC(=O)C1C(c2ccc(-c3cccc([N+](=O)[O-])c3)cc2)CC2CCC1N2C` (centres unmarked) [Compound 4b], the inhibitory constant (Ki) was determined as 9.54 nM in series [1] (setting [4]), 0.8 nM in series [3] (setting [6]) and 963 nM in series [2] (setting [5]). For the same molecule, the “Selectivity for SERT” value in series [3] came out at 11.9.

Turning to `COC(=O)C1C(c2ccc(-c3ccc([N+](=O)[O-])cc3)cc2)CC2CCC1N2C` (centres unmarked) [Compound 4c], the Ki in series [1] (setting [4]) was 5.1 nM; in series [3] (setting [6]), 29.7 nM; in series [2] (setting [5]), 370 nM. For the same molecule, in series [3], the “Selectivity for SERT” value is listed as 0.17.

Take `COC(=O)C1C(c2ccc(-c3cccc(N)c3)cc2)CC2CCC1N2C` (centres unmarked) [Compound 5]: the inhibitory constant (Ki) in series [1] (setting [4]) amounted to 24.2 nM; in series [2] (setting [5]), 661 nM.

`COC(=O)C1C(c2ccc(-c3ccccc3C(C)=O)cc2)CC2CCC1N2C` (centres unmarked) [Compound 6a]: the inhibition constant (Ki) in series [1] (setting [4]) was 1020 nM; in series [2] (setting [5]), more than 20000 nM.

Regarding `COC(=O)C1C(c2ccc(-c3cccc(C(C)=O)c3)cc2)CC2CCC1N2C` (centres unmarked) [Compound 6b], the inhibitory constant (Ki) is 12.4 nM in series [1] (setting [4]) and more than 50000 nM in series [2] (setting [5]).

With `COC(=O)C1C(c2ccc(-c3ccc(C(C)=O)cc3)cc2)CC2CCC1N2C` (centres unmarked) [Compound 6c], the inhibitory constant (Ki) came to 19.1 nM in series [1] (setting [4]) and 754 nM in series [2] (setting [5]).

For `COC(=O)[C@H]1[C@@H](c2ccc(-c3cccc(CNC(=O)OC(C)(C)C)c3)cc2)C[C@@H]2CC[C@H]1N2C` [Compound 7, 3β-[3′-(tert-Butoxycarbonylaminomethyl)biphenyl-4-yl]-Tropane-2β-carboxylic acid methyl ester], the inhibitory constant (Ki) in series [1] was more than 10000 nM; in series [3] (read-out: SERT (Ki)), more than 10000 nM; in series [2] (setting [5]), more than 30000 nM. For the same molecule, in series [3], the “Selectivity for SERT” value is recorded as 1.

As to `COC(=O)C1C(c2ccc(-c3cccc(C(=O)c4ccccc4)c3)cc2)CC2CCC1N2C` (centres unmarked) [Compound 8], the Ki in series [1], in series [3] (read-out: SERT (Ki)) and in series [2] (setting [5]) was more than 3000 nM throughout. Further, the “Selectivity for SERT” value in series [3] worked out at 1.

On to `COC(=O)C1C(c2ccc(-c3cccc(C4OCCO4)c3)cc2)CC2CCC1N2C` (centres unmarked) [Compound 9], for which the inhibition constant (Ki) in series [1] is 363 nM; in series [3] (read-out: SERT (Ki)), more than 10000 nM; in series [2] (setting [5]), more than 30000 nM. Further, the “Selectivity for SERT” value in series [3] was 0.03.

Molecule `COC(=O)C1C2CCC(CC1c1ccc(-c3cccc(OC)c3)cc1)N2` (stereo not drawn) [Compound 10, 3β-(3′-methoxybiphenyl-4-yl)nortropane-2β-carboxylic acid methyl ester] registered a melting point of 102 to 104 °C. The affinity in series [1], expressed as Ki, was 710 nM. Besides, in series [3], the “Selectivity for SERT” value was 306. The Ki in series [3] (read-out: SERT (Ki)) was 2.32 nM. In series [2] (setting [5]), the Ki came out at 295 nM.

On to `COC(=O)[C@H]1[C@@H](c2ccc(-c3cccs3)cc2)C[C@@H]2CC[C@H]1N2C` [Compound 11, 3β-(4-Thiophen-2-yl-phenyl)tropane-2β-carboxylic acid methyl ester], for which the figures for the inhibitory constant (Ki) in series [1], in series [3] and in series [2] were 52 nM, 0.15 nM and 158 nM, respectively. Also, the “Selectivity for SERT” value in series [3] worked out at 346.

Turning to `COC(=O)[C@H]1[C@@H](c2ccc(-c3ccsc3)cc2)C[C@@H]2CC[C@H]1N2C` [Compound 12, 3β-(4-Thiophen-3-yl-phenyl)tropane-2β-carboxylic acid methyl ester], the results for the Ki in series [1], in series [3] and in series [2] were 12.1 nM, 0.17 nM and 189 nM, respectively. Besides, the “Selectivity for SERT” value in series [3] was 711.

As for `COC(=O)C1C(c2ccc(-c3ccco3)cc2)CC2CCC1N2C` (centres unmarked) [Compound 13], the figures for the Ki in series [1] (setting [4]), in series [3] (setting [6]) and in series [2] were 7.14 nM, 1.13 nM and 1400 nM, respectively. For the same molecule, in series [3], the “Selectivity for SERT” value is given as 6.32.

On to `COC(=O)[C@H]1[C@@H](c2ccc(-c3nccs3)cc2)C[C@@H]2CC[C@H]1N2C` [Compound 14, 3β-(4-Thiazol-2-yl-phenyl)tropane-2β-carboxylic acid methyl ester], for which the Ki in series [1] is 520 nM; in series [3], 1.67 nM; in series [2], more than 10000 nM. The “Selectivity for SERT” value in series [3] is 310.

For `COC(=O)C1C(c2ccc(-c3ccccn3)cc2)CC2CCC1N2C` (centres unmarked) [Compound 15], the results for the inhibition constant Ki in series [1] (setting [4]), in series [3] (setting [6]) and in series [2] (setting [5]) were 44 nM, 161 nM and not below 10000 nM, respectively. In series [3], the “Selectivity for SERT” value stood at 0.27.

In the case of `COC(=O)C1C(c2ccc(-c3cccnc3)cc2)CC2CCC1N2C` (centres unmarked) [Compound 16], the inhibitory constant (Ki) stood at 26.5 nM in series [1], 3.54 nM in series [3] (setting [6]) and 1410 nM in series [2] (setting [5]). Moreover, the “Selectivity for SERT” value in series [3] worked out at 7.3.

With `COC(=O)C1C2CCC(CC1c1ccc(-c3cncc(OC)c3)cc1)N2` (stereo not drawn) [Compound 18, 3β-[4-(5′-Methoxypyridin-3-yl)-phenyl]nortropane-2β-Carboxylic Acid Methyl Ester], the values for the inhibitory constant (Ki) in series [1], in series [3] (read-out: SERT (Ki)) and in series [2] (setting [5]) were 587 nM, 3.91 nM and 1590 nM, respectively. Besides, the “Selectivity for SERT” value in series [3] was 150.

For `COC(=O)C1C(c2ccc(-c3cncnc3)cc2)CC2CCC1N2C` (centres unmarked) [Compound 19], the Ki in series [1] (setting [4]) is 344 nM; in series [3] (setting [6]), 33.1 nM; in series [2] (setting [5]), more than 10000 nM. Further, the “Selectivity for SERT” value in series [3] was found to be 10.4.

On to `COC(=O)C1C(c2ccc(-c3cnc4ccccc4c3)cc2)CC2CCC1N2C` (centres unmarked) [Compound 20], for which the Ki in series [1] (setting [4]) was 59.8 nM; in series [3] (setting [6]), 20 nM; in series [2] (setting [5]), more than 3000 nM. In addition, the “Selectivity for SERT” value in series [3] is 3.0.

As for `COC(=O)C1C(c2ccc(-c3cncc4ccccc34)cc2)CC2CCC1N2C` (centres unmarked) [Compound 21], the Ki in series [1] is more than 30000 nM; in series [2] (setting [5]), more than 10000 nM. In addition, in series [3], the “Selectivity for SERT” value was 10.

The values are drawn from patent US20030013883A1, “Tropane analogs binding to monoamine transporters” (priority 2000, published 2003).
